Source: patent publication US12473298B2, “Amide compounds, preparation method therefor, and use thereof in the medical field” (Shanghai Synergy Pharmaceutical Sciences Co., Ltd., priority 2019, dated 2025)
Like-named read-outs stand apart in the source and are kept apart here.

Experiment: Pharmacokinetic experiment in rats
Type: in vivo, SD rats
Settings: for bioavailability / AUC / Cmax: male, SD, rat; for AUC: read-out: Area Curve (AUC, ng/mL · h); for half-life: male, SD, rat, plasma; rats, Intravenous-Dose 4 mg/kg; read-out: Half life T1/2, h) (converted); for Cmax: read-out: Blood Drug level (Cmax, ng/mL)
Protocol: A certain amount of compound was weighted and dissolved in 0.1% Tween under vortex and ultrasound, and 0.5% carboxymethyl cellulose sodium (CMC-NA) solution was added to form a uniform solution.

[1] = plasma, rats, Intravenous-Dose 4 mg/kg
[2] = plasma, rats, Oral-Dose 20 mg/kg
[3] = plasma, rats, oral 20 mg/kg vs intravenous 4 mg/kg, read-out: Bioavailability (P %)

Compound | AUC [1] [ng·h/mL] | half-life [h] | AUC [2] [ng·h/mL] | Cmax [2] [ng/mL] | bioavailability [3] [%] | bioavailability (in vivo, po, 20 mg/kg) [%]
CCN(c1cc(-c2ccc3c(c2)NC(=O)C32CCNCC2)cc(C(=O)NCc2c(OC)cc(C)[nH]c2=O)c1C)C1CCNCC1 [Example 116, 3-(Ethyl(piperidin-4-yl)amino)-N-((4-methoxy-6-methyl-2-oxo-1,2-dihydropyridin-3-yl)methyl)-2-methyl-5-(2-oxospiro[indole-3,4′-piperidine]-6-yl)benzamide] | 912 | 1.05 | 1570 | 453 |  | 34.3
CCN(c1cc(-c2cc3c(cc2F)CCC32CCOCC2)cc(C(=O)NCc2c(OC)cc(C)[nH]c2=O)c1C)C1CCOCC1 [Example 16, 3-(ethyl(tetrahydro-2H-pyran-4-yl)amino)-5-(5-fluoro-2,2′,3,3′,5′,6′-hexahydrospiro[indene-1,4′-pyran]-6-yl)-N-((4-methoxy-6-methyl-2-carbonyl-1,2-dihydropyridin-3-yl)methyl)-2-methylbenzamide] | 956 | 1.42 | 1310 | 480 | 27.4 | 
CCN(c1cc(-c2ccc3c(c2)NC(=O)C32CCOCC2)cc(C(=O)NCc2c(OC)cc(C)[nH]c2=O)c1C)C1CCNCC1 [Example 3, 3-(ethyl(piperidin-4-yl)amino)-N-((4-methoxy-6-methyl-2-oxo-1,2-dihydropyridin-3-yl)methyl)-2-methyl-5-(2-oxo-2′,3′,5′,6′-tetrahydrospiro[dihydroindole-3,4′-pyran]-6-yl)benzamide] | 948 | 1.15 | 1570 | 415 | 33.1 | 
CCN(c1cc(-c2ccc3c(c2)N(C(C)C)CC32CCOCC2)c(Cl)c(C(=O)NCc2c(OC)cc(C)[nH]c2=O)c1C)C1CCOCC1 [Example 49, 2-chloro-5-(ethyl(tetrahydro-2H-pyran-4-yl)amino)-3-(1-isopropyl-2,3,5,6-tetrahydrospiro[dihydroindole-3,4-pyran]-6-yl)-N-((4-methoxy-6-methyl-2-oxo-1,2-dihydropyridin-3-yl)methyl)-6-methylbenzamide] | 997 | 1.31 | 1300 | 598 | 26.2 | 
CCN(c1cc(-c2ccc3c(c2)N(C)C(=O)C32CCN(C(C)C)CC2)c(F)c(C(=O)NCc2c(C)cc(C)[nH]c2=O)c1C)C1CCOCC1 [Example 61, N-((4,6-dimethyl-2-oxo-1,2-dihydropyridin-3-yl)methyl)-3-(ethyl(tetrahydro-2H-pyran-4-yl)amino)-6-fluoro-5-(1′-isopropyl-1-methyl-2-oxospiro[dihydroindole-3,4′-piperidine]-6-yl)-2-methylbenzamide] | 932 | 1.72 | 1250 | 426 | 26.8 | 

Further lines, with some results ahead:

AUC [1] [ng·h/mL] | half-life [h] | AUC [2] [ng·h/mL] | Cmax [2] [ng/mL] | bioavailability [3] [%] | Compound | bioavailability (in vivo, po, 20 mg/kg) [%]
932 | 1.35 | 1190 | 472 | 25.5 | CCN1C(=O)C2(CCOCC2)c2ccc(-c3cc(C(=O)NCc4c(C)cc(C)[nH]c4=O)c(C)c(N(CC)C4CCOCC4)c3)cc21 [Example 18, N-((4,6-dimethyl-2-carbonyl-1,2-dihydropyridin-3-yl)methyl)-3-(ethyl(tetrahydro-2H-pyran-4-yl)amino)-5-(1-ethyl-2-carbonyl-2′,3′,5′,6′-tetrahydrospiro[dihydroindole-3,4′-pyran]-6-yl)-2-methylbenzamide] | 
948 | 1.15 | 1570 | 415 | 33.1 | CCN(c1cc(-c2ccc3c(c2)NC(=O)C32CCOCC2)cc(C(=O)NCc2c(OC)cc(C)[nH]c2=O)c1C)C1CCOCC1 [Example 115, 3-(Ethyl(tetrahydro-2H-pyran-4-yl)amino)-N-((4-methoxy-6-methyl-2-oxo-1,2-dihydropyridin-3-yl)methyl)-2-methyl-5-(2-oxo-2′,3′,5′,6′-tetrahydrospiro[dihydroindole-3,4′-pyran]-6-yl)benzamide] | 
